Patent US20080255224A1, “PHARM[…] OF PSORIASIS” (priority 2007, published 2008)

Legend:
[1] = system: epidermal keratinocyte differentiation; details: cited from earlier work
[2] = system: keratinocyte proliferation; details: in vitro; cited from earlier work
[3] = system: psoriasis; assay: Oral nabilone in a patient suffering from psoriasis, inpatient, unblinded; type: in vivo, human
Protocol: A patient suffering from psoriasis was treated with oral nabilone on an inpatient, unblinded basis. The patient suffered from psoriasis which had not responded well to prior drug treatments. To assess whether nabilone was beneficial in alleviating symptoms, nabilone at a dose of 1 mg was added to all other anti-inflammatory and anti-psoriatic medications. The results were dramatic. The regimen administered was a 0.5 mg dosage twice daily for four days, and then 1 mg twice daily for five days and eventually 1 mg daily was administered to the patient. Itch which had been intolerable and incessant abolished with the 1st dose. By the 10th day of therapy the skin redness had disappeared.

[4] = prior use for nausea and vomiting of chemotherapy; cited from earlier work

CCCCC/C=C\C/C=C\C/C=C\C/C=C\CCCC(=O)NCCO [Anadamide]
Effect on epidermal keratinocyte differentiation [1]: inhibits

COc1ccc2c(c1)c(CC(=O)N1CCOCC1)c(C)n2C(=O)c1ccc(Cl)cc1 [BML 190]
Inhibition of keratinocyte proliferation [2]: only partial inhibition

CCCCCCC(C)(C)c1cc(O)c2c(c1)OC(C)(C)[C@@H]1CC=C(CO)C[C@@H]21 [HU210]
Inhibition of keratinocyte proliferation [2]: concentration-dependent response

CCCn1c(C)c(C(=O)c2cccc3ccccc23)c2ccccc21 [JWH015]
Inhibition of keratinocyte proliferation [2]: only partial inhibition

CCCCCCC(C)(C)c1cc(O)c2c(c1)OC(C)(C)C1CCC(=O)CC21 (centres unmarked) [nabilone]
Itch ([3]; oral nabilone added to all other anti-inflammatory and anti-psoriatic medications, with the 1st dose (0.5 mg)): abolished
Skin redness ([3]; oral, by the 10th day of therapy (0.5 mg twice daily for four days, then 1 mg twice daily for five days, then 1 mg daily)): disappeared
Immunosuppressive potential [4]: does not show immunosuppressive potential
Tolerability [4]: well tolerated
